Experimental findings from patent publication US20260284051A1, “METHIONINE ADENOSYLTRANSFERASE 2A (MAT2A) INHIBITOR COMBINATIONS AND USES THEREOF” (INSILICO MEDICINE IP LIMITED, priority 2023, published 2026) are described below.

pIC50: −log10 of the molar value. Where only a bound is given, the exact number is not on record here.

For the test, the target named is MAT2A (Homo sapiens, UniProt P31153). Kind of test: MAT2A Biochemical Assay. The note with it: read-out: MAT2A enzymatic IC50. The protocol:
Example A: MAT2A Biochemical Assay
Compounds described herein were tested as follows:
• (1). Prepared 1×Assay buffer. • (2). Preparation of compound concentration gradient: the compounds test condition were […], 3-fold dilution, 10 doses, singlet or duplicate. 100x concentration compounds were prepared in 384-well plate. Then used Echo 550 to transfer 250 nl to a 384-reaction plate for later use. Added 250 nl of 100% DMSO to the negative and positive control wells. • (3). Prepared 1.67× final concentration enzyme solution with 1×Assay buffer. • (4). Added 15 μl of 1.67× Enzyme solution to the compound wells and positive control wells; added 15 μl of 1×Assay buffer to the negative control wells. • (5). Centrifuged at 1000 rpm for 30 seconds and incubate for 15 minutes. • (6). Prepared 2.5× final concentration Substrate mix solution with 1×Assay buffer. • (7). Added 10 μl of 2.5× final concentration Substrate mix solution to start the reaction. • (8). Centrifuged at 1000 rpm for 30 seconds and incubate for 150 minutes. • (9). Added […] Biomol Green to stop the reaction, centrifuge at 1000 rpm for 30 seconds and incubate for 15 minutes. read O.D.620, process data.
• (1) Using GraphPad Prism 5.
[formula] • (3) Max signal was obtained from the positive control wells. • (4) Min signal was obtained from the negative control wells.

MAT2A, sequence (P31153 whole entry, species assumed): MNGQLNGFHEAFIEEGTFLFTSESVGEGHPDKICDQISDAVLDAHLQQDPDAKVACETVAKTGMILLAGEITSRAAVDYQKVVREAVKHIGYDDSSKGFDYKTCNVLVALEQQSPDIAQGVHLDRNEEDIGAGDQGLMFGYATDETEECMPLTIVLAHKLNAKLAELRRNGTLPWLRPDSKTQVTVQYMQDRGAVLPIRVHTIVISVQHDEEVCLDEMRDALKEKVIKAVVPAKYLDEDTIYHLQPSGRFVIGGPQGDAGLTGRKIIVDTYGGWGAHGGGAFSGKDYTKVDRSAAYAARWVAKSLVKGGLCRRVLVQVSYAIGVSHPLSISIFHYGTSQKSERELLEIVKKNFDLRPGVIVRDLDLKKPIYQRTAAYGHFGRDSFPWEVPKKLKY

As a reminder, the pIC50 is −log10 of the IC50, conventionally taken in molar units. Take `C#CCNc1nc(=O)n(-c2cccnc2)c2cc(C(F)(F)F)ccc12` [Example 7]: the pIC50 was over 7.30.

As for `C#CCNc1nc(=O)n(-c2cccnn2)c2nc(C(F)(F)F)ccc12` [Example 63], the pIC50 is over 7.30. The result for `C#CC1(Nc2nc(=O)n(-c3cccnc3)c3cc(Cl)cc(OC)c23)CC1` [Example 66] reads over 7.30; that for `C#CC1CCN(c2nc(=O)n(-c3ccccc3Cl)c3cc(Cl)ccc23)CC1` [Example 13], under 6.00; that for `C#CCNc1nc(=O)n(-c2cnccn2)c2cc(C(F)(F)F)ccc12` [Example 53], over 7.30.

In the case of `C#CC1(Nc2nc(=O)n(-c3cccnc3C)c3cc(C(F)(F)F)ccc23)CC1` [Example 46], the pIC50 was over 7.30.

On to `C#CCNc1nc(=O)n(-c2cccnc2C)c2cc(Cl)ccc12` [Example 15], for which the pIC50 was over 7.30. Next, `C#CC1(Nc2nc(=O)n(-c3cccnc3C)c3cc(C(F)(F)F)cc(OC)c23)CC1` [Example 49]: over 7.30; `C#CCNc1nc(=O)n(-c2cccnc2)c2nc(C(F)(F)F)ccc12` [Example 57]: over 7.30.

Consider `C#CC1(Nc2nc(=O)n(-c3nccnc3C)c3cc(Cl)cc(OC)c23)CC1` [Example 25], for which the pIC50 was over 7.30. On to `C=CCNc1nc(=O)n(-c2cccnc2)c2cc(Cl)cc(OC)c12` [Example 73], for which the negative logarithm of the IC50 (pIC50) is over 7.30. Turning to `C#CCNc1nc(=O)n(-c2cccnc2)c2cc(C(F)(F)F)cc(OC)c12` [Example 34], the pIC50 was over 7.30. The result for `C#CC1(Nc2nc(=O)n(-c3cccnc3)c3cc(C(F)(F)F)ccc23)CC1` [Example 67] reads over 7.30; that for `C#CC(C)Nc1nc(=O)n(-c2cccnc2)c2cc(C(F)(F)F)cc(OC)c12` (stereo not shown) [Example 35], over 7.30; that for `C=CCNc1nc(=O)n(-c2cccnc2C)c2cc(Cl)cc(OC)c12` [Example 74], over 7.30. Next, `C#CC(C)Nc1nc(=O)n(-c2cccnc2C)c2cc(C(F)(F)F)cc(OC)c12` (stereo not shown) [Example 37]: over 7.30. Next, `C#CCNc1nc(=O)n(-c2c(C)ccnc2C)c2cc(C(F)(F)F)ccc12` [Example 52]: over 7.30; `C#CC1(Nc2nc(=O)n(-c3cccnn3)c3nc(C(F)(F)F)ccc23)CC1` [Example 70]: over 7.30. In the case of `C#CC(C)Nc1nc(=O)n(-c2cccnc2)c2cc(C(F)(F)F)ccc12` (stereo not shown) [Example 64], the pIC50 was over 7.30. For the compound `C#CCNc1nc(=O)n(-c2cccnc2C)c2cc(C(F)(F)F)cc(OC(F)F)c12` [Example 40], the pIC50 is over 7.30. As for `C#CC1(Nc2nc(=O)n(-c3cccnc3)c3cc(C(F)(F)F)cc(OC)c23)CC1` [Example 47], the pIC50 was over 7.30.

For the compound `C#CCNc1nc(=O)n(-c2cccnc2C)c2cc(Cl)cc(OC)c12` [Example 22], the pIC50 was over 7.30.

Regarding `C#CC1(Nc2nc(=O)n(-c3cccnc3C)c3cc(Cl)ccc23)CC1` [Example 16], the pIC50 was over 7.30. With `C=CCNc1nc(=O)n(-c2cccnc2C)c2cc(C(F)(F)F)cc(OC)c12` [Example 77], the pIC50 is over 7.30. As to `C#CC1(Nc2nc(=O)n(-c3cccnc3C)c3cc(Cl)cc(OC)c23)CC1` [Example 27], the pIC50 was over 7.30. Turning to `C#CCNc1nc(=O)n(-c2cnccn2)c2cc(C(F)(F)F)cc(OC)c12` [Example 54], the pIC50 is over 7.30.

Consider `C#CCN(C)c1nc(=O)n(-c2cccnc2)c2cc(C(F)(F)F)ccc12` [Example 51], for which the pIC50 is over 7.30.

Turning to `C=CCNc1nc(=O)n(-c2cccnc2)c2cc(C(F)(F)F)ccc12` [Example 76], the pIC50 is over 7.30. The result for `C#CCNc1nc(=O)n(-c2nccnc2C)c2cc(Cl)cc(OC)c12` [Example 23] reads over 7.30; that for `C#CCNc1nc(=O)n(-c2cnccn2)c2cc(Cl)cc(OC)c12` [Example 21], over 7.30; that for `C#CC(C)Nc1nc(=O)n(-c2cccnc2C)c2cc(Cl)cc(OC)c12` (stereo not shown) [Example 26], over 7.30. For `C#CCCNc1nc(=O)n(-c2ccccc2Cl)c2cc(Cl)ccc12` [Example 8], the pIC50 was over 7.30.

For the compound `O=c1nc(NCC#CCN2CCOCC2)c2ccc(C(F)(F)F)cc2n1-c1cccnc1` [Example 14], the pIC50 is over 7.30. Turning to `C#CCNc1nc(=O)n(-c2cccnc2)c2cc(Cl)ccc12` [Example 1], the pIC50 was over 7.30. Next, `C#CCNc1nc(=O)n(-c2nccnc2C)c2cc(C(F)(F)F)cc(OC)c12` [Example 48]: over 7.30. The result for `C#CCNc1nc(=O)n(-c2cccnc2)c2nc(C(F)(F)F)ncc12` [Example 61] reads over 7.30; that for `C#CCCCNc1nc(=O)n(-c2cccnc2)c2cc(C(F)(F)F)ccc12` [Example 6], over 7.30; that for `C#CCNc1nc(=O)n(-c2cccnc2)c2cc(Cl)cc(F)c12` [Example 29], over 7.30. In the case of `C#CCNc1nc(=O)n(-c2cccnc2C)c2nc(C(F)(F)F)cc(OC)c12` [Example 42], the negative logarithm of the IC50 (pIC50) was over 7.30. The result for `C#CCNc1nc(=O)n(-c2cccnc2C)c2cc(Cl)cc(F)c12` [Example 30] reads over 7.30; that for `C#CC1(Nc2nc(=O)n(-c3cccnc3)c3cc(Cl)ccc23)CC1` [Example 4], over 7.30; that for `C#CCNc1nc(=O)n(-c2cccnc2C(C)C)c2cc(C(F)(F)F)ccc12` [Example 45], over 7.30.

`C#CC1(Nc2nc(=O)n(-c3cccnc3C)c3cc(C(F)(F)F)cc(OC)c23)CCC1` [Example 50]: the pIC50 is over 7.30.

In the case of `C=CC1(Nc2nc(=O)n(-c3cccnc3C)c3cc(Cl)cc(OC)c23)CC1` [Example 75], the pIC50 was over 7.30. The result for `C#CCNc1nc(=O)n(-c2cccnc2)c2cc(C(F)(F)F)cc(OCF)c12` [Example 38] reads over 7.30; that for `C#CCNc1nc(=O)n(-c2ccccc2Cl)c2cc(Cl)ccc12` [Example 10], over 7.30.

As to `C#CC1(Nc2nc(=O)n(-c3cnccn3)c3cc(C(F)(F)F)ccc23)CC1` [Example 69], the pIC50 is over 7.30. For `C#CCNc1nc(=O)n(-c2cnccn2)c2cc(Cl)ccc12` [Example 17], the pIC50 is over 7.30.

For `C#CCNc1nc(=O)n(-c2cccnc2)c2cc(Cl)cc(OC)c12` [Example 20], the pIC50 is over 7.30.

Take `C#CC1(Nc2nc(=O)n(-c3cccnc3)c3cc(C(F)(F)F)cnc23)CC1` [Example 56]: the pIC50 is under 6.00. The result for `C#CC1(Nc2nc(=O)n(-c3cnccn3)c3cc(Cl)cc(OC)c23)CC1` [Example 24] reads over 7.30. Next, `C#CC1(Nc2nc(=O)n(-c3cccnc3C)c3cc(Cl)cc(F)c23)CC1` [Example 31]: over 7.30. Next, `O=c1nc(NCC#CC2CC2)c2ccc(Cl)cc2n1-c1cccnc1` [Example 2]: over 7.30; `C#CC1(Nc2nc(=O)n(-c3cccnc3C)c3cc(Cl)cc(OC)c23)CCC1` [Example 28]: over 7.30; `C#CC1(Nc2nc(=O)n(-c3cccnc3)c3nc(C(F)(F)F)ccc23)CC1` [Example 68]: over 7.30. On to `C#CCNc1nc(=O)n(-c2cccnc2)c2cc(Br)ccc12` [Example 18], for which the pIC50 is over 7.30. For `C#CCNc1nc(=O)n(-c2cccnc2C)c2cc(C(F)(F)F)ccc12` [Example 33], the pIC50 was over 7.30. The result for `C#CCNc1nc(=O)n(-c2cccnc2C)c2cc(Br)cc(OC)c12` [Example 19] reads over 7.30.
